Experimental data published in publication PMC7550323 (Clinical Pharmacokinetics, 2020).
Where “and” joins values, the source holds several entries; their conditions need not be identical. Equal values may be shown once. Read-outs that look alike come from different tables or passages of the source.

What was measured:
[1] = Hepatic impairment study, single-dose gilteritinib pharmacokinetics; format: in vivo, human; conditions: for AUC480, GLSM, Unbound / AUCinf, GLSM, Unbound / Cmax, GLSM, Unbound: single 10 mg dose, fasted, N = 8
FLT3 [2] = conditions: cited from earlier work
Population PK analysis = format: in vivo, human
MV4-11 AML cells = conditions: mice xenografted with MV4-11 AML cells; cited from earlier work
[3] = tested on: FLT3 receptors expressing the F691L gatekeeper mutation; conditions: cited from earlier work
[4] = cited from earlier work
[5] = for AUC / Cmax / Tmax / half-life: human, plasma, oral; for AUC / Cmax / Tmax: single dose (Day-2)
[6] = Effect of food study in healthy subjects; format: in vivo, human; conditions: single 40 mg dose
[7] = CYP3A4 drug-drug interaction study in healthy subjects; format: in vivo, human; conditions: for AUCinf, GLSM ratio / AUClast, GLSM ratio / Cmax, GLSM ratio: 100 indicates no change
[8] = format: in vivo, human
c-Kit = conditions: preclinical evaluations; cited from earlier work
FLT3 [9] = conditions: doses of ≥ 80 mg/day; cited from earlier work
[10] = format: in vivo, human; conditions: R/R AML; achievable at QD doses of 80 mg or greater
[11] = multiple dosing QD (Day 15), 20 mg, n = 3
[12] = multiple dosing QD (Day 15), 40 mg, n = 2
[13] = multiple dosing QD (Day 15), 40 mg, n = 12
[14] = multiple dosing QD (Day 15), 80 mg, n = 3
[15] = multiple dosing QD (Day 15), 80 mg, n = 20
[16] = multiple dosing QD (Day 15), 120 mg, n = 3
[17] = multiple dosing QD (Day 15), 120 mg, n = 61
[18] = multiple dosing QD (Day 15), 200 mg, n = 2
[19] = multiple dosing QD (Day 15), 200 mg, n = 79
[20] = multiple dosing QD (Day 15), 300 mg, n = 3
[21] = multiple dosing QD (Day 15), 300 mg, n = 15
[22] = fluconazole + gilteritinib/gilteritinib alone
[23] = itraconazole + gilteritinib/gilteritinib alone
[24] = rifampicin + gilteritinib/gilteritinib alone
[25] = metabolite profiling after 14C-gilteritinib
[26] = single oral dose of 14C-gilteritinib

## CCc1nc(C(N)=O)c(Nc2ccc(N3CCC(N4CCN(C)CC4)CC3)c(OC)c2)nc1NC1CCOCC1 [gilteritinib, Gilteritinib]
[1]; mild hepatic impairment
  AUC480, GMR vs normal hepatic function, Total: 78.13%
  AUC480, GMR vs normal hepatic function, Unbound: 87.59%
  AUCinf, GMR vs normal hepatic function, Total: 78.88%
  AUCinf, GMR vs normal hepatic function, Unbound: 88.42%
  Cmax, GMR vs normal hepatic function, Total: 106.59%
  Cmax, GMR vs normal hepatic function, Unbound: 119.49%
  AUC480, GLSM, Unbound: 25.95 ng·h/mL
  AUCinf, GLSM, Unbound: 27.53 ng·h/mL
  Cmax, GLSM, Unbound: 0.5171 ng/mL
[1]; moderate hepatic impairment
  AUC480, GMR vs normal hepatic function, Total: 60.55%
  AUC480, GMR vs normal hepatic function, Unbound: 87.21%
  AUCinf, GMR vs normal hepatic function, Total: 61.43%
  AUCinf, GMR vs normal hepatic function, Unbound: 88.48%
  Cmax, GMR vs normal hepatic function, Total: 81.73%
  Cmax, GMR vs normal hepatic function, Unbound: 117.72%
  AUC480, GLSM, Unbound: 25.84 ng·h/mL
  AUCinf, GLSM, Unbound: 27.54 ng·h/mL
  Cmax, GLSM, Unbound: 0.5095 ng/mL
[1]; normal hepatic function
  AUC480, GLSM, Unbound: 29.62 ng·h/mL
  AUCinf, GLSM, Unbound: 31.13 ng·h/mL
  Cmax, GLSM, Unbound: 0.4328 ng/mL
FLT3 [2]
  inhibition of FLT3 receptors with ITD and D835 mutations: highly specific potent inhibition
FLT3 [2]; preclinical evaluations
  selectivity for FLT3: highly selective for FLT3
Population PK analysis; human, plasma, oral
  half-life: 4.71 days
Population PK analysis; in vivo
  volume of distribution: large volume of distribution
MV4-11 AML cells
  effect on tumor growth: inhibited tumor growth and induced tumor regression
[3]
  activity against FLT3 receptors expressing the F691L gatekeeper mutation: weak activity
[4]; R/R AML, QD single agent
  maximum tolerated dose: 300 mg/day
[4]; doses of ≥ 80 mg/day
  median overall survival duration: 31 weeks
  overall response rate: 52%
[5]; 20 to 450 mg QD, R/R AML
  dose proportionality of pharmacokinetics: dose-proportional pharmacokinetics
[5]; QD dosing, visual inspection of median Ctrough
  time at which steady state is achieved, based on Ctrough: ≤ 15 days
[5]; 20 mg, AUC24, Mean (SD), n = 5
  AUC: 302 ng·h/mL
[5]; 20 mg, AUC24, Median (range), n = 5
  AUC: 262 ng·h/mL
[5]; 20 mg, Mean (SD), n = 5
  Cmax: 28.1 ng/mL
[5]; 20 mg, Median (range), n = 5
  Cmax: 23.7 ng/mL
  Tmax: 2 h
[5]; 20 mg, t½, Mean (SD), multiple dosing QD (Day 15), 20 mg, n = 3, calculated from Rac
  half-life: 2.59 days
[5]; 20 mg, t½, Median (range), multiple dosing QD (Day 15), 20 mg, n = 3, calculated from Rac
  half-life: 2.27 days
[5]; 40 mg, AUC24, Mean (SD), n = 3
  AUC: 360 ng·h/mL
[5]; 40 mg, AUC24, Median (range), n = 3
  AUC: 315 ng·h/mL
[5]; 40 mg, Mean (SD), n = 3
  Cmax: 25 ng/mL
[5]; 40 mg, Median (range), n = 3
  Cmax: 17 ng/mL
  Tmax: 5.98 h
[5]; 40 mg, t½, Mean (SD), multiple dosing QD (Day 15), 40 mg, n = 2, calculated from Rac
  half-life: 6.33 days
[5]; 40 mg, t½, Median (range), multiple dosing QD (Day 15), 40 mg, n = 2, calculated from Rac
  half-life: 6.33 days
[5]; 80 mg, AUC24, Mean (SD), n = 3
  AUC: 1220 ng·h/mL
[5]; 80 mg, AUC24, Median (range), n = 3
  AUC: 995 ng·h/mL
[5]; 80 mg, Mean (SD), n = 3
  Cmax: 75.3 ng/mL
[5]; 80 mg, Median (range), n = 3
  Cmax: 71.5 ng/mL
  Tmax: 4 h
[5]; 80 mg, t½, Mean (SD), multiple dosing QD (Day 15), 80 mg, n = 3, calculated from Rac
  half-life: 3.59 days
[5]; 80 mg, t½, Median (range), multiple dosing QD (Day 15), 80 mg, n = 3, calculated from Rac
  half-life: 3.79 days
[5]; 120 mg, AUC24, Mean (SD), n = 3
  AUC: 2480 ng·h/mL
[5]; 120 mg, AUC24, Median (range), n = 3
  AUC: 1390 ng·h/mL
[5]; 120 mg, Mean (SD), n = 3
  Cmax: 137 ng/mL
[5]; 120 mg, Median (range), n = 3
  Cmax: 85.7 ng/mL
  Tmax: 2.1 h
[5]; 120 mg, t½, Mean (SD), multiple dosing QD (Day 15), 120 mg, n = 3, calculated from Rac
  half-life: 1.91 days
[5]; 120 mg, t½, Median (range), multiple dosing QD (Day 15), 120 mg, n = 3, calculated from Rac
  half-life: 1.87 days
[5]; 200 mg, AUC24, Mean (SD), n = 3
  AUC: 3020 ng·h/mL
[5]; 200 mg, AUC24, Median (range), n = 3
  AUC: 2540 ng·h/mL
[5]; 200 mg, Mean (SD), n = 3
  Cmax: 168 ng/mL
[5]; 200 mg, Median (range), n = 3
  Cmax: 149 ng/mL
  Tmax: 5.2 h
[5]; 200 mg, t½, Mean (SD), multiple dosing QD (Day 15), 200 mg, n = 2, calculated from Rac
  half-life: 5.92 days
[5]; 200 mg, t½, Median (range), multiple dosing QD (Day 15), 200 mg, n = 2, calculated from Rac
  half-life: 5.92 days
[5]; 300 mg, AUC24, Mean (SD), n = 3
  AUC: 4160 ng·h/mL
[5]; 300 mg, AUC24, Median (range), n = 3
  AUC: 2450 ng·h/mL
[5]; 300 mg, Mean (SD), n = 3
  Cmax: 204 ng/mL
[5]; 300 mg, Median (range), n = 3
  Cmax: 137 ng/mL
  Tmax: 6.1 h
[5]; 300 mg, t½, Mean (SD), multiple dosing QD (Day 15), 300 mg, n = 3, calculated from Rac
  half-life: 5.92 days
[5]; 300 mg, t½, Median (range), multiple dosing QD (Day 15), 300 mg, n = 3, calculated from Rac
  half-life: 6.62 days
[5]; 450 mg, AUC24, Mean (SD), n = 2
  AUC: 3320 ng·h/mL
[5]; 450 mg, AUC24, Median (range), n = 2
  AUC: 3320 ng·h/mL
[5]; 450 mg, Mean (SD), n = 3
  Cmax: 208 ng/mL
[5]; 450 mg, Median (range), n = 3
  Cmax: 216 ng/mL
  Tmax: 5.8 h
[5]; estimated t1/2, across dose cohorts, multiple dosing
  half-life: 1.88 to 6.62 days
[5]; multiple dosing QD
  accumulation based on the accumulation index: up to ten-fold accumulation
[5]; [11]
  Rac (accumulation ratio), Mean (SD): 4.3 (1.069)
  Rac (accumulation ratio), Median (range): 3.8 (3.5–5.5)
[5]; multiple dosing QD (Day 15), 20 mg, n = 11
  Ctrough, Mean (SD): 43.5 (23.5) ng/mL
[5]; [12]
  Rac (accumulation ratio), Mean (SD): 9.6 (7.8)
  Rac (accumulation ratio), Median (range): 9.6 (4.2–15.1)
[5]; [13]
  Ctrough, Mean (SD): 72.9 (40.1) ng/mL
  Ctrough, Median (range): 66.6 (26.7–166) ng/mL
[5]; [14]
  Rac (accumulation ratio), Mean (SD): 5.7 (1.4)
  Rac (accumulation ratio), Median (range): 6.0 (4.1–6.97)
[5]; [15]
  Ctrough, Mean (SD): 165 (88.0) ng/mL
  Ctrough, Median (range): 110 (78.6–339) ng/mL
[5]; [16]
  Rac (accumulation ratio), Mean (SD): 3.3 (1.2)
  Rac (accumulation ratio), Median (range): 3.2 (2.2–4.4)
[5]; [17]
  Ctrough, Mean (SD): 367 (253) ng/mL
  Ctrough, Median (range): 292 (77.1–1173) ng/mL
[5]; [18]
  Rac (accumulation ratio), Mean (SD): 9.0 (3.7)
  Rac (accumulation ratio), Median (range): 9.0 (6.4–11.7)
[5]; [19]
  Ctrough, Mean (SD): 816 (557) ng/mL
  Ctrough, Median (range): 668 (90.5–2925) ng/mL
[5]; [20]
  Rac (accumulation ratio), Mean (SD): 9.1 (3.3)
  Rac (accumulation ratio), Median (range): 10.1 (5.4–11.7)
[5]; [21]
  Ctrough, Mean (SD): 1242 (723) ng/mL
  Ctrough, Median (range): 1085 (470–2391) ng/mL
[5]; multiple dosing QD (Day 15), 450 mg, n = 1
  Ctrough, Mean (SD): 1170 ng/mL
[6]
  AUC72, GMR (fed/fasted): 91.0%
  AUCinf, GMR (fed/fasted): 93.8%
  AUClast, GMR (fed/fasted): 94.6%
  Cmax, GMR (fed/fasted): 74.0%
[7]; coadministration of itraconazole (strong CYP3A4 inhibitor)
  increase in systemic exposure of gilteritinib: ~ 2.2 fold and 2.2 fold
[7]; coadministration with fluconazole
  increase in gilteritinib systemic exposure: ~ 1.43 fold
[7]; concomitant administration of rifampicin
  decrease in gilteritinib systemic exposure: ~ 70%
[7]; [22]
  AUCinf, GLSM ratio: 143.5%
  AUClast, GLSM ratio: 144.0%
  Cmax, GLSM ratio: 115.7%
[7]; [23]
  AUCinf, GLSM ratio: 221.4%
  AUClast, GLSM ratio: 213.5%
  Cmax, GLSM ratio: 119.8%
[7]; [24]
  AUCinf, GLSM ratio: 28.5%
  AUClast, GLSM ratio: 29.2%
  Cmax, GLSM ratio: 73.4%
[8]; after [14C]-gilteritinib 120 mg single dose at steady state
  average total blood-to-plasma ratios of total 14C-radioactivity: 0.8514–1.361
[8]; [25]
  radioactive peak in feces, accounting for: 11.7–23.8%
  radioactive peak in urine, accounting for: 6.3–15.8%
[8]; [26]
  total administered dose recovered in feces: 64.5%
  total dose recovered in urine: 16.4%
  total radioactive dose recovered: 80.9%
c-Kit
  activity against c-Kit: weak activity
FLT3 [9]
  maximum FLT3 inhibition: > 90%
[10]
  steady-state Ctrough at which composite complete response occurred more commonly: ≥ 100 ng/mL
